Experimental data reported in patent US6465647B1, “Oxygen, sulfur and nitrogen substituted cyclohexene and cyclohexane derivatives having retinoid-like biological activity” (Allergan, Inc., priority 1999, dated 2002).

These compounds were tested on ornithine decarboxylase (ODC) (assay: Ornithine decarboxylase (ODC) assay: inhibition of TPA induction of ODC activity). Settings: concentration of the test compound which causes 60% inhibition in the ODC assay (TPA-induced ODC activity).
Format: biochemical
From the text: A classic measure of retinoic acid activity involves measuring the effects of retinoic acid on ornithine decarboxylase. The original work on the correlation between retinoic acid and a decrease in cell proliferation was done by Verma & Boutwell, Cancer Research, 1977, 37, 2196-2201. That reference discloses that ornithine decarboxylase (ODC) activity increased precedent to polyamine biosynthesis. It has been established elsewhere that increases in polyamine synthesis can be correlated or associated with cellular proliferation. Thus, if ODC activity could be inhibited, cell hyperproliferation could be modulated. Although all cases for ODC activity increases are unknown, it is known that 12-0-tetradecanoylphorbol-13-acetate (TPA) induces ODC activity. Retinoic acid inhibits this induction of ODC activity by TPA. […] “IC60” is that concentration of the test compound which causes 60% inhibition in the ODC assay. By analogy, “IC80”, for example, is that concentration of the test compound which causes 80% inhibition in the ODC assay.
Table 1 discloses the activity of certain exemplary compounds of the invention in the above-described oinithine decarboxylase (ODC) assay.

Which “IC60” value does the source give for `CCOC(=O)c1ccc(C#C/C=C/C2=C(C)CCCC2OC(C)=O)cc1` (single isomer, unassigned) [Compound 3a, Ethyl (−)-(E)-4-(4-(6-Acetyloxy-2-methylcyclohex-1-enyl)but-3-en-1-ynyl)benzoate] here?
Its value is 0.52 nM.

How did the “IC60” value turn out when `CCOC(=O)c1ccc(C#C/C=C/C2=C(C)CCCC2OC(C)=O)cc1` (single isomer, unassigned) [Compound 3b, Ethyl (+)-(E)-4-(4-(6-Acetyloxy-2-methylcyclohex-1-enyl)but3-en-1-ynyl)benzoate] was run?
Its value is 4.3 nM.

For `CCOC(=O)c1ccc(C#C/C=C/C2=C(C)CCCC2OC(=O)C(C)(C)C)cc1` (single isomer, unassigned) [Compound 6a, Ethyl (−)-(E)-4-(4-(6-(2,2-Dimethylpropanoyl)oxy-2-methylcyclohex-1-enyl)but-3-ene-1-ynyl)benzoate], which “IC60” value is on record?
Its value is 5.1 nM.

For `CCOC(=O)c1ccc(C#C/C=C/C2=C(C)CCCC2OC(=O)C(C)(C)C)cc1` (single isomer, unassigned) [Compound 6b, Ethyl (+)-(E)-4-(4-(6-(2,2-Dimethylpropanoyl)oxy-2-methylcyclohex-1-enyl)but-3-ene-1-ynyl)benzoate], which “IC60” value is on record?
The value was 124 nM.

`CCOC(=O)c1ccc(C#C/C=C/C2=C(C)CCCC2OC(=O)CC)cc1` (stereo not drawn) [Compound 4a, Ethyl (−)-(E)-4-(4-(6-Propionyloxy-2-methylcyclohex-1-enyl)but-3-en-1-ynyl)benzoate] was tested. Which “IC60” value did it give?
The value was 20.9 nM.

For `CCOC(=O)c1ccc(C#C/C=C/C2=C(C)CCCC2OC(=O)C(C)C)cc1` (stereo not drawn) [Compound 5b, Ethyl (+)-(E)-4-(4-(6-iso-Butyryloxy-2-methyicyclohex-1-enyl)but-3-ene-1-ynyl)benzoate], which “IC60” value is on record?
The value was 234 nM.

With `CCOC(=O)c1ccc(C#C/C=C/C2=C(C)CCCC2OC(=O)c2ccccc2)cc1` (stereo not drawn) [Compound 7a, Ethyl (−)-(E)-4-(4-(6-Benzoyloxy-2-methylcyclohex-1-enyl)but-3-ene-1-ynyl)benzoate] as the compound, how does the “IC60” value read?
Its value is 8.6 nM.

Which “IC60” value does the source give for `CCOC(=O)c1ccc(C#CC=CC2=C(C)CCCC2=NOC)cc1` [Compound 10] here?
The value was 2.4 nM.

Which “IC60” value does the source give for `CCOC(=O)c1ccc(C#CC=CC2=C(C)CCCC2=NOCc2ccccc2)cc1` [Compound 11] here?
Its value is 10.3 nM.

With `CCOC(=O)C=C1CCCC(C)=C1C=CC#Cc1ccc(C(=O)OCC)cc1` [Compound 12, Ethyl 4-(4-(6-Ethoxycarbonylmethylene-2-methylcyclohex-1-enyl)but-3-en-1-ynyl)benzoate] as the compound, how does the “IC60” value read?
Its value is 7.8 nM.

Same assay, conditions: concentration of the test compound which causes 60% inhibition in the ODC assay (TPA-induced ODC activity); listed as Sa

How did the “IC60” value turn out when `CCOC(=O)c1ccc(C#C/C=C/C2=C(C)CCCC2OC(=O)C(C)C)cc1` (stereo not drawn) [Compound 5a, Ethyl (−)-(E)-4-(4-(6-iso-Butyryloxy-2-methylcyclohex-1-enyl)but-3-ene-1-ynyl)benzoate] was run?
The value was 15.7 nM.
